Data reported in US20250082635A1 (Janssen Pharmaceutica NV, priority 2023, published 2025).
Like-named read-outs stand apart in the source and are kept apart here.

What was measured:
clinical [1] = settings: both, human, in vivo
Description: (§3) Participants were screened for eligibility for study entry. The diagnosis of hepatic impairment was based on medical history, a Child-Pugh Clinical Assessment Score of 5 to 6 (Grade A, mild hepatic impairment), 7 to 9 (Grade B, moderate hepatic impairment), and 10 to 15 (Grade C, severe hepatic impairment), and the presence of physical signs (liver firmness to palpitation, splenic enlargement, spider angioma, palmar erythema, parotid hypertrophy, testicular atrophy, or gynecomastia) or other modalities (computed tomography, ultrasound, magnetic resonance imaging, radionuclide liver/spleen scan or abdominal laparoscopy, or liver biopsy). The underlying disease leading to hepatic impairment was documented (e.g., hepatitis B, hepatitis C, alcoholic steatohepatitis, nonalcoholic fatty liver disease [hereditary/metabolic], or other). Hepatic encephalopathy grading was done by the Principal Investigator. The individual components of the Child-Pugh Clinical Assessment Score were documented. Participants with liver transplant were excluded.
(§4) The clinical study of Example 1 consisted of a screening phase (within 21 days before study intervention administration); an open-label treatment phase (Day 1 to Day 5) including the end-of-study (EOS) or withdrawal assessments (performed on Day 5 or upon early withdrawal). The study duration for each participant was approximately 4 weeks from screening (Day-21 to Day-1) to EOS assessments.
(§5) Healthy men and women between 18 and 79 years of age, inclusive; with a body mass index (BMI) between 18 and 38 kg/m^2, inclusive, and a body weight of not less than 50 kg were enrolled in the study according to their hepatic function. The degree of hepatic impairment was based on Child Pugh's classification. Using this classification, participants were grouped on the basis of 2 clinical features (hepatic encephalopathy and ascites) and 3 laboratory-based parameters (albumin, bilirubin, and prothrombin time).
(§6) The study included 24 human patients divided into 3 different cohorts: • Cohort 1:8 healthy participants with normal hepatic function and no evidence of liver damage and no evidence of liver damage, • Cohort 2:8 participants with mild hepatic impairment (having a Child-Pugh score of 5 to 6), and • Cohort 3:8 participants with moderate hepatic impairment (Child-Pugh score of 7 to 9).
(§7) Based on hepatic impairment classified during screening, 8 participants with mild hepatic impairment (Cohort 2) and 8 participants with moderate hepatic impairment (Cohort 3) were enrolled. After 8 participants each in Cohort 2 and Cohort 3 had completed study related procedures including the 96 hours PK sample, participants with normal hepatic function (Cohort 1) were enrolled. A group matching procedure was used to demographically match healthy participants having normal hepatic function with respect to sex, age, and weight to the participants enrolled in Cohort 2 and Cohort 3. […] Participants in the control group (Cohort 1) who tested positive for Hepatitis B surface antigen (HbsAg) or Hepatitis C antibodies were not permitted in the study.
(§8) In the normal hepatic function group (Cohort 1), at least 3 participants with an individual value above and at least 3 participants with an individual value below the mean age/mean body weight values of the combined mild (Cohort 2) and moderate (Cohort 3) hepatic impairment groups were enrolled. Two to 4 females were enrolled in each of the cohorts.
(§9) Participants remained in supine position from the predose assessments until 4-hour postdose but were allowed short upright stints for pressing needs (e.g., bathroom visits) and during consumption of meal.

[2] = for mean AUC∞ compared to normal hepatic function / mean Cmax compared to normal hepatic function / mean Cmax,unbound compared to normal hepatic function: arithmetic means
Description: as §3, §4, §5, §6, §7, §8, §9

plasma protein = test: clinical; settings: Day 1, 2 h
Description: (§1) Participants entered the study site on the morning of Day 1 and remained there until after collection of the 96 hours PK sample on Day 5. […] In addition, blood samples for determination of the plasma protein binding (PPB) were collected.
(§2) For all cohorts, 2-hours fraction unbound values were used to derive the unbound plasma concentrations and these unbound concentrations were used to derive unbound PK parameters.

clinical [3] = settings: both, human, plasma, % fu, fraction unbound (mean (SD)), Day 1, 2 h
Description: as §1, §2

[4] = Estimated contribution of active metabolites to efficacy of seltorexant; settings: active metabolite
[5] = 10 mg, AUClast, geometric mean, Cohort 3 (Test) moderate hepatic impairment, 10 mg dose normalized to 20 mg, total
[6] = 10 mg, AUClast, geometric mean, Cohort 3 (Test) moderate hepatic impairment, 10 mg dose normalized to 20 mg, unbound
[7] = 10 mg, AUC∞ (mean (SD)), Cohort 3 moderate hepatic impairment, 10 mg dose normalized to 20 mg, total in plasma
[8] = 10 mg, AUC∞, geometric mean, Cohort 3 (Test) moderate hepatic impairment, 10 mg dose normalized to 20 mg, total
[9] = 10 mg, AUC∞, geometric mean, Cohort 3 (Test) moderate hepatic impairment, 10 mg dose normalized to 20 mg, unbound
[10] = 10 mg, Cmax, geometric mean, Cohort 3 (Test) moderate hepatic impairment, 10 mg dose normalized to 20 mg, total
[11] = 10 mg, Cmax, geometric mean, Cohort 3 (Test) moderate hepatic impairment, 10 mg dose normalized to 20 mg, unbound
[12] = 10 mg, […], Cohort 3 moderate hepatic impairment, 10 mg dose normalized to 20 mg, total in plasma
[13] = 20 mg, AUClast, geometric mean, Cohort 1 (Reference) normal hepatic function, total
[14] = 20 mg, AUClast, geometric mean, Cohort 1 (Reference) normal hepatic function, unbound
[15] = 20 mg, AUClast, geometric mean, Cohort 2 (Test) mild hepatic impairment, total
[16] = 20 mg, AUClast, geometric mean, Cohort 2 (Test) mild hepatic impairment, unbound
[17] = 20 mg, AUC∞, geometric mean, Cohort 1 (Reference) normal hepatic function, total
[18] = 20 mg, AUC∞, geometric mean, Cohort 1 (Reference) normal hepatic function, unbound
[19] = 20 mg, AUC∞, geometric mean, Cohort 2 (Test) mild hepatic impairment, total
[20] = 20 mg, AUC∞, geometric mean, Cohort 2 (Test) mild hepatic impairment, unbound
[21] = 20 mg, Cmax, geometric mean, Cohort 1 (Reference) normal hepatic function, total
[22] = 20 mg, Cmax, geometric mean, Cohort 1 (Reference) normal hepatic function, unbound
[23] = 20 mg, Cmax, geometric mean, Cohort 2 (Test) mild hepatic impairment, total
[24] = 20 mg, Cmax, geometric mean, Cohort 2 (Test) mild hepatic impairment, unbound
[25] = dose normalized moderate hepatic impairment vs normal, total
[26] = dose normalized moderate hepatic impairment vs normal, unbound
[27] = mild hepatic impairment vs normal, total
[28] = mild hepatic impairment vs normal, unbound
[29] = Cohort 1 normal hepatic function
[30] = Cohort 2 mild hepatic impairment
[31] = Cohort 3 moderate hepatic impairment
[32] = 10 mg, Cohort 3 moderate hepatic impairment
[33] = 20 mg, Cohort 1 normal hepatic function
[34] = 20 mg, Cohort 2 mild hepatic impairment

With `Cc1cc(CO)nc(N2CC3CN(C(=O)c4c(F)cccc4-n4nccn4)CC3C2)n1` (stereo not shown) [M12] the AUC(0-t) (clinical [1]; [5]) was 2380 ng·h/mL, the AUC(0-t) (clinical [1]; [6]) was 258 ng·h/mL and the AUC(0-inf) (clinical [1]; [7]) was 2580 ng·h/mL. It also gave an AUC(0-inf) (clinical [1]; [8]) of 2400 ng·h/mL, an AUC(0-inf) (clinical [1]; [9]) of 262 ng·h/mL and a Cmax (clinical [1]; [10]) of 253 ng/mL. It also gave a Cmax (clinical [1]; [11]) of 27.5 ng/mL, an AUC(0-t) (clinical [1]; [12]) of 2550 ng·h/mL and a Cmax (clinical [1]; [12]) of 261 ng/mL. The AUC(0-t) (clinical [1]; [13]) was 2310 ng·h/mL, the AUC(0-t) (clinical [1]; [14]) was 118 ng·h/mL and the AUC(0-t) (clinical [1]; [15]) was 3950 ng·h/mL. For the same molecule, the AUC(0-t) (clinical [1]; [16]) was 234 ng·h/mL, the AUC(0-inf) (clinical [1]; [17]) was 2320 ng·h/mL and the AUC(0-inf) (clinical [1]; [18]) was 119 ng·h/mL. It also gave an AUC(0-inf) (clinical [1]; [19]) of 3980 ng·h/mL, an AUC(0-inf) (clinical [1]; [20]) of 236 ng·h/mL and a Cmax (clinical [1]; [21]) of 320 ng/mL. It also gave a Cmax (clinical [1]; [22]) of 16.3 ng/mL, a Cmax (clinical [1]; [23]) of 355 ng/mL and a Cmax (clinical [1]; [24]) of 21 ng/mL. For the same molecule, the AUC(0-t) (clinical [1]; po, 10 mg) was 1280 ng·h/mL, the Cmax (clinical [1]; po, 10 mg) was 131 ng/mL and the Tmax (clinical [1]; po, 10 mg) was 2.25 h. For the same molecule, the half-life (clinical [1]; po, 10 mg) was 4.07 h, the AUC(0-inf) (clinical [1]; po, 20 mg) was 4860 ng·h/mL and the AUC(0-t) (clinical [1]; po, 20 mg) was 4830 ng·h/mL. The Cmax (clinical [1]; po, 20 mg) was 368 ng/mL, the half-life (clinical [1]; po, 20 mg) was 3.44 h and the “mean AUC∞ compared to normal hepatic function” value [2, 25] was “comparable”. The “mean Cmax compared to normal hepatic function” value [2, 25] was 0.78 fold, the “mean Cmax,unbound compared to normal hepatic function” value [2, 26] was 1.71 fold and the “Cmax compared to normal hepatic function, based on GMR” value [2, 25] was 0.79 fold. For the same molecule, the “mean AUC∞ compared to normal hepatic function” value [2, 27] was 1.80 fold, the “mean Cmax compared to normal hepatic function” value [2, 27] was “comparable” and the “mean Cmax,unbound compared to normal hepatic function” value [2, 28] was 1.46 fold. For the same molecule, the “Cmax compared to normal hepatic function, based on GMR” value [2, 27] was roughly 1.11 fold, the “AUC∞,unbound compared to normal hepatic function, based on GMR” value [2, 28] was roughly 1.99 fold and the “% fb (mean (SD))” value (plasma protein; [29]) was 94.6 (1.91) %. The “% fb (mean (SD))” value (plasma protein; [30]) was 92.9 (4.58) %, the “% fb (mean (SD))” value (plasma protein; [31]) was 88.6 (3.84) % and the fraction unbound at 2 h (clinical [3]; [32]) was 0.114. It also gave a fraction unbound at 2 h (clinical [3]; [33]) of 0.0545 and a fraction unbound at 2 h (clinical [3]; [34]) of 0.0707.

With `Cc1nc(N2CC3CN(C(=O)c4c(F)cccc4-n4nccn4)CC3C2)nc(C)c1O` (stereo not shown) [M16] the AUC(0-t) (clinical [1]; [5]) was 620 ng·h/mL, the AUC(0-t) (clinical [1]; [6]) was 53 ng·h/mL and the AUC(0-inf) (clinical [1]; [7]) was 683 ng·h/mL. For the same molecule, the AUC(0-inf) (clinical [1]; [8]) was 674 ng·h/mL, the AUC(0-inf) (clinical [1]; [9]) was 57.6 ng·h/mL and the Cmax (clinical [1]; [10]) was 41.8 ng/mL. The Cmax (clinical [1]; [11]) was 3.57 ng/mL, the AUC(0-t) (clinical [1]; [12]) was 631 ng·h/mL and the Cmax (clinical [1]; [12]) was 43 ng/mL. It also gave an AUC(0-t) (clinical [1]; [13]) of 778 ng·h/mL, an AUC(0-t) (clinical [1]; [14]) of 29 ng·h/mL and an AUC(0-t) (clinical [1]; [15]) of 783 ng·h/mL. It also gave an AUC(0-t) (clinical [1]; [16]) of 36.3 ng·h/mL, an AUC(0-inf) (clinical [1]; [17]) of 812 ng·h/mL and an AUC(0-inf) (clinical [1]; [18]) of 30.3 ng·h/mL. It also gave an AUC(0-inf) (clinical [1]; [19]) of 807 ng·h/mL, an AUC(0-inf) (clinical [1]; [20]) of 37.4 ng·h/mL and a Cmax (clinical [1]; [21]) of 64.6 ng/mL. For the same molecule, the Cmax (clinical [1]; [22]) was 2.41 ng/mL, the Cmax (clinical [1]; [23]) was 50 ng/mL and the Cmax (clinical [1]; [24]) was 2.32 ng/mL. The AUC(0-inf) (clinical [1]; po, 10 mg) was 342 ng·h/mL, the AUC(0-t) (clinical [1]; po, 10 mg) was 315 ng·h/mL and the Cmax (clinical [1]; po, 10 mg) was 21.5 ng/mL. The Tmax (clinical [1]; po, 10 mg) was 2.5 h, the half-life (clinical [1]; po, 10 mg) was 10.2 h and the AUC(0-inf) (clinical [1]; po, 20 mg) was 851 ng·h/mL. It also gave an AUC(0-t) (clinical [1]; po, 20 mg) of 827 ng·h/mL, a Cmax (clinical [1]; po, 20 mg) of 51.5 ng/mL and a Tmax (clinical [1]; po, 20 mg) of 2 h. For the same molecule, the half-life (clinical [1]; po, 20 mg) was 13.4 h, the “mean AUC∞ compared to normal hepatic function” value [2, 25] was 0.74 fold and the “mean Cmax compared to normal hepatic function” value [2, 25] was 0.62 fold. The “AUC∞ compared to normal hepatic function, based on GMR” value [2, 25] was roughly 0.83 fold, the “AUClast,unbound compared to normal hepatic function, based on GMR” value [2, 26] was roughly 1.82 fold and the “Cmax,unbound compared to normal hepatic function, based on GMR” value [2, 26] was roughly 1.48 fold. For the same molecule, the “mean AUC∞ compared to normal hepatic function” value [2, 27] was “comparable”, the “mean Cmax compared to normal hepatic function” value [2, 27] was 0.75 fold and the “AUClast,unbound compared to normal hepatic function, based on GMR” value [2, 28] was roughly 1.25 fold. For the same molecule, the “Cmax,unbound compared to normal hepatic function, based on GMR” value [2, 28] was 0.96 fold, the “contribution to efficacy of seltorexant (activity)” value [4] was less than 4% and the “% fb (mean (SD))” value (plasma protein; [29]) was 96.0 (1.43) %. For the same molecule, the “% fb (mean (SD))” value (plasma protein; [30]) was 94.3 (3.95) %, the “% fb (mean (SD))” value (plasma protein; [31]) was 91.0 (3.14) % and the fraction unbound at 2 h (clinical [3]; [32]) was 0.0901. The fraction unbound at 2 h (clinical [3]; [33]) was 0.04 and the fraction unbound at 2 h (clinical [3]; [34]) was 0.0568.
